These results are taken from patent US11622975B2, “Compositions and methods for improved honey bee health” (priority 2019, dated 2023).

One series has as its system honey bee. To be noted: half of previously published honey bee LD50; used as dose in the cage study; cited from earlier work.
Series [1] deals with honey bees. Briefly: Cage survival study of bees fed sublethal doses of pesticides with or without MBCD. Format: in vivo, Apis mellifera. Conditions: bees fed pesticide alone at sublethal dose in 50% sucrose; control 36 days. As for the experimental part: This example illustrates the baseline effects of the inventive composition in the absence of an exogenous stressor. Samples of European honey bees, Apis mellifera, were collected from colonies maintained in the apiaries of the USDA-ARS Bee Research Laboratory in Beltsville, Md. Frames with emerging brood were removed from colonies and individually placed in a mesh-walled cage. The cages were transferred to an insect growth chamber at 34° C. and 70% humidity. After 24 hrs incubation, newly emerged honey bees were transferred to a honey bee rearing cup, with a top-feeder design, allowing for easy sampling of honey bees (see e.g., Evans et al., 2009). A 3 mL syringe filled with 50% sugar syrup mixture was inverted over the top of the rearing cup to provision the caged honey bees. The honey bees were also provisioned with 1.5 grams of honey bee pollen supplement in patty form (e.g., Bee-Pro®, available from Mann Lake Ltd, Hackensack, Minn.), supplemented 10% (w/w) with ground fresh pollen, and placed on cotton paper on the cup cage bottoms. Syringes and sucrose solution were changed every 3 days and cotton paper was changed once per week.
In this example, whether MBCD mitigates the toxicity of certain pesticides associated with honey bee death was investigated. Not intending to be theory-bound, it was hypothesized that the binding of hydrophobic pesticide molecules to CDs would translate into health benefits to honey bees that were exposed to such pesticides. Samples of honey bees were collected as in example 1. A cage study (n=30 bees per cage & 2 replicate cages per treatment) was performed using 50% sucrose solution that had been spiked with sublethal doses of common pesticides that are known to be toxic to honey bees to measure the ability of treatment MBCD compositions to confer protection to the honey bees. Analytical grade standards of clothianidin, imidacloprid, and chlorpyrifos (available from MilliporeSigma, St. Louis, Mo.) were first dissolved in acetone, then diluted to their final concentrations (Table 2) in 50% sugar syrup. The listed sublethal doses were derived from taking half of the previously published honey bee LD50s (referred to a “LD25” in Table 2). The solutions were administered via 3 mL syringes in rearing cups as previously stated. Fresh pesticide solutions were mixed every 3 days to coincide with syringe replacement (see e.g., Williamson et al., 2013; Li et al, 2017).
Median survival is represented for each treatment by (# days). Curves were compared using Log-Rank Mantel-Cox (p<0.0001 for clothianidin versus control, 1, or 10 μg MBCD; p<0.001 for chlorpyrifos versus control or 1 μg MBCD) and Gehan-Breslow-Wilcoxon (p<0.0001 for clothianidin versus control, 1, or 10 μg MBCD; p<0.05 for chlorpyrifos versus control or 1 μg MBCD). […] The chlorpyrifos treatment was able to reduce median lifespan on its own to 26 days compared to the 36 days of the control (FIG. 2C). While a dosage of 10 μg/bee MBCD did increase median lifespan to 30 days, there was not a significant change in median lifespan.

A further series deals with honey bee colonies. Nature of the series: Overwintering field trial of honey bee colonies treated with HPBCD and acaricide. The format is in vivo. Conditions: for colony (hive) loss: fed October to December, surviving hives counted in March, 10 colonies per treatment, no treatment about 50%; for total frames containing bees: measured in March after overwintering, no treatment 50 frames. As for the experimental part: This example illustrates the use of HPBCD in a field setting. Four treatments with 10 colonies per treatment were performed as follows: (i) No HPBCD and no acaricide (No Treatment control), (ii) acaricide alone (Amitraz), (iii) HPBCD, and (iv) a combination of Amitraz and HPBCD. Colonies were fed treatments using a top box feeder in a “Langstroth Hive” from October to December, then surviving hives were counted in March of the following year and numbers of Langstroth frames containing bees were measured. About 50% of the colonies that received no treatment were lost; while it is a high level of loss it was within the expected range for hives that received no extra management besides sugar syrup supplementation (which agrees with the national average for untreated colonies). The group receiving only Amitraz, the current industry standard for mite control, lost about 20% of the colonies. HPBCD on its own was able to reduce hive loss to about 30%. […] Not intending to be bound by theory, one possible explanation for this profound effect is that Amitraz was lethal to mites based on contact (LC50), while the possible sub lethal and chronic affects for the honey bee were dosage based (LD50) as evidenced by slower behavioral response time (see e.g., De Mattos, 2017). It is likely the bees ingest the HPBCD and the Amitraz was sequestered rendering its effects on the bee diminished, while the groups that received no HPBCD were still susceptible to the effects of the acaricide.

Series [2] concerns Deformed wing virus (DWV). Briefly: Viral load (RT-qPCR) in virus-infected honey bees after MBCD treatment. The format is in vivo, Apis mellifera. Conditions: clothianidin treated bees compared to bees supplemented with 20 ppm MBCD. As for the experimental part:
The presence of DWV and Varroa destructor was determined as follows. Total RNA was extracted from whole body 12 individual honey bees using the TRIzol Reagent® (available from Thermo Fisher Scientific, Waltham, Mass.) by manufacturers specifications, and stored at −80° C. First-strand cDNA was synthesized using the Superscript III Reverse Transcriptase (available in a kit from Thermo Fisher Scientific). Briefly, each reaction contained: 3 μl total bee RNA (˜1 μg/μl), 1 μl of 10 mM dNTPs, 1 μl random primers (0.15 μg/μl), 1 μL of Oligo(dT), 1 μl of 0.1 M DTT (0.1 M), 4 μl 5×First-Strand Buffer, 1 uL of 200 U/μL RnaseOUT, 1 μl of 200 U/μl SuperScript III Reverse Transcriptase, and 7 μl Nuclease-free water. The reaction mixture was incubated at 25° C. for 5 min, 55° C. for 2 hrs, and 70° C. for 15 min, then stored at −20° C. until use. Transcript levels (RT-qPCR analysis) were quantified using the Brilliant III Ultra-Fast SYBR Green® QPCR Master Mix (Agilent Technologies, Inc., Santa Clara, Calif.) on a CFX384 Touch Real Time PCR Detection System (Bio-Rad Laboratories, Inc., Hercules, Calif.). Samples were incubated at 95° C. for 5 min, followed by 40 cycles of 95° C. for 20 s, 59° C. for 20 s, and 72° C. for 20 s. Thereafter, a melt curve analysis from 65° C. to 95° C. was performed to confirm product specificity. For the detection and quantification of negative stranded bee viruses, replication intermediates, TAG-DWV primers were substituted for random primers or oligos (see e.g., Boncristiani et al., 2009). The fold difference in viral concentration among different treatment groups was determined using the comparative Ct method (2^−ΔΔCT method) (see e.g., Livak & Schmittgen, 2001). Calibrators were chosen as the highest average treatment ΔCt value for each experiment.
Emerging bees that had non-deformed wings (i.e., asymptomatic) were selected for a cage study (n=30 bees per cage & 6 replicate cages per treatment). […] Virally infected untreated bees were compared to bees fed 10 μg/bee MBCD in 50% sucrose solution. In FIG. 6A, DWV (+) sense viral genome titers were compared 3 and 6 days after treatment. An unpaired, 2-tailed Student's T-Test was performed to determine statistical significance (p<0.05 at 3 days feeding; N.S.=Non-significant 6 days after treatment). In FIG. 6B, DWV (−) sense replicative strand titers were compared 3 and 6 days after treatment. An unpaired, 2-tailed Student's T-Test was performed to determine statistical significance (p<0.0001 for 3 days post treatments; p=0.049 for 6 days post treatment). The “★” denotes the sample chosen as the 2^−ΔΔCT calibrator and bars denote standard error.
For orientation: Quantitative PCR measures a nucleic acid by following its amplification.

The subject of series [3] is honey bees. Briefly: MBCD and HPBCD alpha-tocopherol inclusion complex treatment of clothianidin-exposed bees, survival. The format is in vivo, Apis mellifera. To be noted: clothianidin treatment alone, n=280 bees/treatment. The protocol:
MBCD & HPBCD alpha-tocopherol inclusion complexes were formulated using 2.33 μL of +-(α)-tocopherol (1,000 I.U., available from MilliporeSigma, St. Louis, Mo.) added to 1 g of MBCD or HPBCD to arrive at a concentration of approximately 20 I.U. of tocopherol/bee/day and 10 μg (or other indicted dosage) of BCD/bee/day. The resulting powder can be stored at −20° C. or immediately dissolved into 4.166 L of water containing 50% sucrose. The resulting solution is stable and stored at 4° C. until further use. The comparative effects of MBCD versus HPBCD treated bees are shown for lab-controlled environment (n=280 bees/treatment).

On to `O=[N+]([O-])NC1=NCCN1Cc1ccc(Cl)nc1` [Imidacloprid, imidacloprid, reference compound], for which the “Sublethal LD25” value with honey bee is recorded as 4.3 ng/bee. The compound also gave a median lifespan with honey bees [1] of 32 days.
In the case of `Cc1ccc(/N=C/N(C)/C=N/c2ccc(C)cc2C)c(C)c1` [Amitraz, amitraz, reference compound], in the series on honey bee colonies, the “colony (hive) loss” value is on record as “about 20%” and the “total frames containing bees” value is on record as 48.5 frames.
On to `CN/C(=N\[N+](=O)[O-])NCc1cnc(Cl)s1` [Clothianidin, clothianidin, reference compound], for which, in series [2], the DWV levels result is given as “higher levels of DWV”. For the same compound, the “Sublethal LD25” value with honey bee is reported as 1.0 ng/bee. Moreover, the median lifespan is on record as 22 days with honey bees [3] and 13.5 days with honey bees [1].
In the case of `CC(O)COC[C@H]1O[C@@H]2O[C@H]3[C@H](O)[C@@H](O)[C@@H](O[C@H]4[C@H](O)[C@@H](O)[C@@H](O[C@H]5[C@H](O)[C@@H](O)[C@@H](O[C@H]6[C@H](O)[C@@H](O)[C@@H](O[C@H]7[C@H](O)[C@@H](O)[C@@H](O[C@H]8[C@H](O)[C@@H](O)[C@@H](O[C@H]1[C@H](O)[C@H]2O)O[C@@H]8COCC(C)O)O[C@@H]7COCC(C)O)O[C@@H]6COCC(C)O)O[C@@H]5COCC(C)O)O[C@@H]4COCC(C)O)O[C@@H]3COCC(C)O` (stereo partly drawn) [HPBCD, hydroxypropyl-β-cyclodextrin], in the series with honey bee colonies, the “colony (hive) loss” value is “about 30%” and the “total frames containing bees” value was found to be 53.5 frames.
With `CCOP(=S)(OCC)Oc1nc(Cl)c(Cl)cc1Cl` [Chlorpyrifos, chlorpyrifos, reference compound], the “Sublethal LD25” value with honey bee is 0.43 ng/bee. Also, in the series on honey bees [1], the median lifespan came to 26 days.
